Results as given in patent US7713952B2, “2-methylene-19,26,27-trinor-(20S)-1α-hydroxyvitamin D3 and its uses” (Wisconsin Alumni Research Foundation, priority 2004, dated 2010).
pEC50, pKi: −log10 of the molar value.

Key:
[1] = tested on: vitamin D-deficient rats; assay: Bone calcium mobilization (serum calcium); type: in vivo, rat; settings: rats on 0.02% Ca diet
Procedure: (§1) Intestinal Calcium Transport and Bone Calcium Mobilization
(§2) Male, weanling Sprague-Dawley rats were placed on Diet 11 (0.47% Ca) diet +AEK for one week followed by Diet 11 (0.02% Ca) +AEK for 3 weeks. The rats were then switched to a diet containing 0.47% Ca for one week followed by two weeks on a diet containing 0.02% Ca. Dose administration began during the last week on 0.02% calcium diet. Four consecutive ip doses were given approximately 24 hours apart. Twenty-four hours after the last dose, blood was collected from the severed neck and the concentration of serum calcium determined as a measure of bone calcium mobilization. The first 10 cm of the intestine was also collected for intestinal calcium transport analysis using the everted gut sac method.

[2] = tested on: vitamin D-deficient rats; assay: Intestinal calcium transport (everted gut sac method); type: in vivo, rat; settings: FIG. 6
Procedure: as §1, §2

[3] = molecular target: T1, full-length recombinant rat vitamin D receptor (Rattus norvegicus, UniProt P13053); assay: Vitamin D receptor competitive binding with [3H]-1,25(OH)2D3; settings: full-length recombinant rat VDR; FIG. 1; read-out: Ki, competition with [3H]-1,25(OH)2D3 for binding to vitamin D receptor
T1 construct: Full-length recombinant rat receptor was expressed in E. coli; histidine tag (C); made in house; host or cells: E. coli BL21 (DE3) Codon Plus RIL
T1 sequence (P13053 1-423): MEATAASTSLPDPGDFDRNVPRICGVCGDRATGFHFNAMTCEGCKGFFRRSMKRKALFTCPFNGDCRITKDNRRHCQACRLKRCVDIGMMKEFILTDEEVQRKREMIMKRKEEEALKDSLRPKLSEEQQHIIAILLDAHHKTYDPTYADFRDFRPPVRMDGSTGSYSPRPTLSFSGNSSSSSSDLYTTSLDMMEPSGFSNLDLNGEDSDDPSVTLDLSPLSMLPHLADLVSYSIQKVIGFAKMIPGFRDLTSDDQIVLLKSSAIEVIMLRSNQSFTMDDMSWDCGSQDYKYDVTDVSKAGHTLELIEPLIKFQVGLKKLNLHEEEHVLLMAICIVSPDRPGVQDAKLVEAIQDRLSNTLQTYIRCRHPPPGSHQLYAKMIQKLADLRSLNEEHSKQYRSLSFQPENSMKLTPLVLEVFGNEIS
Procedure: Full-length recombinant rat receptor was expressed in E. coli BL21 (DE3) Codon Plus RIL cells and purified to homogeneity using two different column chromatography systems. The first system was a nickel affinity resin that utilizes the C-terminal histidine tag on this protein. The protein that was eluted from this resin was further purified using ion exchange chromatography (S-Sepharose Fast Flow). Aliquots of the purified protein were quick frozen in liquid nitrogen and stored at −80° C. until use. For use in binding assays, the protein was diluted in TEDK50 (50 mM Tris, 1.5 mM EDTA, pH7.4, 5 mM DTT, 150 mM KCl) with 0.1% Chaps detergent. The receptor protein and ligand concentration were optimized such that no more than 20% of the added radiolabeled ligand was bound to the receptor.
Radiolabeled and unlabeled ligands were added to 100 mcl of the diluted protein at a final ethanol concentration of ≦10%, mixed and incubated overnight on ice to reach binding equilibrium. The following day, 100 mcl of hydroxylapatite slurry (50%) was added to each tube and mixed at 10-minute intervals for 30 minutes. The hydroxylapaptite was collected by centrifugation and then washed three times with Tris-EDTA buffer (50 mM Tris, 1.5 mM EDTA, pH 7.4) containing 0.5% Titron X-100. […]

[4] = tested on: Human promyelocytic leukemia (HL60) cells; assay: HL-60 cell differentiation (nitro blue tetrazolium reduction); type: cell-based; settings: 4 days, FIG. 2
Procedure: Radiolabeled and unlabeled ligands were added to 100 mcl of the diluted protein at a final ethanol concentration of ≦10%, mixed and incubated overnight on ice to reach binding equilibrium. The following day, 100 mcl of hydroxylapatite slurry (50%) was added to each tube and mixed at 10-minute intervals for 30 minutes. The hydroxylapaptite was collected by centrifugation and then washed three times with Tris-EDTA buffer (50 mM Tris, 1.5 mM EDTA, pH 7.4) containing 0.5% Titron X-100. After the final wash, the pellets were transferred to scintillation vials containing 4 ml of Biosafe II scintillation cocktail, mixed and placed in a scintillation counter. Total binding was determined from the tubes containing only radiolabeled ligand. • HL-60 Differentiation • Test Material Study Drugs
The study drugs were dissolved in ethanol and the concentrations determined using UV spectrophotometry. Serial dilutions were prepared so that a range of drug concentrations could be tested without changing the final concentration of ethanol (≦0.2%) present in the cell cultures. […]
HL60 cells were plated at 1.2×10^5 cells/ml. […] The percentage of differentiated cells was determined by counting a total of 200 cells and recording the number that contained intracellular black-blue formazan deposits. Verification of differentiation to monocytic cells was determined by measuring phagocytic activity (data not shown).

[5] = tested on: 24-hydroxylase (24Ohase) gene promoter in ROS 17/2.8 (bone) cells; assay: In vitro transcription assay (24-hydroxylase promoter luciferase reporter); type: cell-based; settings: ROS 17/2.8 cells, 24OHase-luciferase, 16 h; FIG. 3; read-out: EC50, transcriptional activity in bone cells
Procedure: In Vitro Transcription Assay
Transcription activity was measured in ROS 17/2.8 (bone) cells that were stably transfected with a 24-hydroxylase (24Ohase) gene promoter upstream of a luciferase reporter gene (Arbour et al., 1998). Cells were given a range of doses. Sixteen hours after dosing the cells were harvested and luciferase activities were measured using a luminometer.
RLU=relative luciferase units.

[6] = 87 or 780 pmol/day ip for 4 days

SMILES | mobilization of bone calcium (serum calcium) ([1]; 87 pmol/day ip for 4 consecutive days) | mobilization of bone calcium (serum calcium) ([1]; 780 pmol/day and 7020 pmol/day ip for 4 days) | intestinal calcium transport ([2]; 7020 pmol/day ip for 4 days) | intestinal calcium transport [2, 6] | pKi [3] | pEC50 ([4]; Homo sapiens, HL-60, 96 h) | pEC50 [5] | serum calcium levels (bone calcium mobilization) ([1]; all dosages, FIG. 4) | pEC50 [4]
C=C1[C@H](O)CC(=C/C=C2\CCC[C@@]3(C)C2CCC3[C@@H](C)CCCC)C[C@H]1O (stereo partly drawn) [OM, 2-methylene-19,26,27-trinor-(20S)-1α-hydroxyvitamin D3] | did not result in mobilization of bone calcium | without any substantial effect | significant intestinal calcium transport activity was recorded | does not promote intestinal calcium transport | 10.11 | 8.33 | 8.49 |  | 
C=C1/C(=C\C=C2/CCC[C@]3(C)[C@@H]([C@H](C)CCCC(C)(C)O)CC[C@@H]23)C[C@@H](O)C[C@@H]1O [1,25(OH)2D3, 1α,25-dihydroxyvitamin D3, reference compound] |  |  |  | promotes a significant increase |  |  |  | increased serum calcium levels at all dosages | 8.54
